According to US6585982B1, “Treatment of infertility” (NNA/S, priority 1999, dated 2003):

Assays:
metaphase II oocytes [1] = assay: FF-MAS as adjunct to a standard FSH based IVF treatment (GnRH analog Synarel down regulation, ICSI); format: cell-based, human
From the text: (§1) The patient underwent down regulation with an GnRH analog, i.e., Synarel (nasal spray, two puffs daily), for at least 14 days (starting in the luteal phase of the previous cycle or Day 1 or 2 in the follicular phase of the current cycle) and ovarian stimulation with recombinant FSH with an average daily dose of 225 IU. At least 3 follicles of 17 mm or more were present at the time of administering hCG, i.e. Profase (10.000 IU, one shot). Follicles were aspirated and metaphase II oocytes were cultured in oocyte culture system containing standard in vitro fertilization (IVF) media (IVF 20 (which is available from Scandinavian IVF Science AB, Gothenburg, Sweden)) supplemented with human serum albumin (0.8%) and FF-MAS (5 μM). All oocytes were cultured under normal conditions at 37° C. in the incubator. Each oocyte was cultured in one well in a four-chamber culture dish as culture media system. […] Preembryos were evaluated for cleavage stage and fragmentation/morphology at 1, 2 and 3 days post ICSI. […] The patient received an estrogen, i.e., Estrofem (6 mg/daily), and a progesterone, i.e., Utrogestan (600 mg/daily, micronized, vaginal suppository), daily to render the endometrium lining the patient uterus responsive and ready for allowing implantation of the transferred eggs. […]

metaphase II oocytes [2] = assay: FF-MAS as adjunct to a standard FSH based IVF treatment (GnRH antagonist Cetrorelix protocol, ICSI); format: cell-based, human
Description: as §1, with “regulation” for “regulation with an GnRH analog, i.e., Synarel (nasal spray, two puffs daily), for at least 14 days (starting in the luteal phase of the previous cycle or Day 1 or 2 in the follicular phase of the current cycle) and ovarian stimulation”, “225 IU starting on Day 1 or 2 of the current cycle and used a GnRH antagonist, i.e., Cetrorelix (1 mg daily, subcutaneously, one shot), in the current cycle.” for “225 IU.”, “hCG, i.e., Profasi” for “hCG, i.e. Profase”, “progesterone, i.e.” for “progesterone, i.e.,”, “suppository),” for “suppository), daily”

[3] = FF-MAS 5 μM, 0.8% HSA in IVF 20 medium, 4 hours before and 20 hours after ICSI

Measured: results of the IVF procedure compared with the known procedures

CC(C)=CCC[C@@H](C)[C@H]1CC=C2C3=C(CC[C@@]21C)[C@@]1(C)CC[C@H](O)C(C)(C)[C@@H]1CC3 [FF-MAS, 4,4-dimethyl-5α-cholesta-8,14,24-triene-3β-ol]
better results: metaphase II oocytes [1]; [3] | metaphase II oocytes [1]; FF-MAS 20 μM, otherwise procedure of Example 4 | metaphase II oocytes [2]; [3] | metaphase II oocytes [2]; FF-MAS 20 μM, otherwise procedure of Example 3
